According to patent US6994983B2, “Kits for determination of thromboxane B2 metabolite and optimizing aspirin dosage” (Esoterix, Inc. Coagulation, priority 1999, dated 2006):
“And” between values parts separate entries of the source, which are not always exact repeats. Equal values may be shown once.

Key:
[1] = system: 11-dehydro thromboxane B2; assay: Urine 11-dehydro thromboxane B2 (PURR) after one-week interventions with purple grape juice, vitamin E and aspirin; type: in vivo, human; conditions: for Mean post-intervention PURR: one week each: purple grape juice controlled daily volumes, mean baseline 1105; for Mean post-intervention PURR / % Change of PURR vs mean baseline: vitamin E 400 international units per day, aspirin 650 mg per day; for % Change of PURR vs mean baseline: one week each: purple grape juice; for effect upon urinary excretion of 11-dehydro thromboxane B2: one-week interventions, in words
Description: 11-dehydro thromboxane B2, a stable metabolite of platelet-specific cyclooxygenase activity, in urine specimens from 29 individuals was measured. Participants were instructed to drink controlled daily volumes of purple grape juice, 400 international units per day of vitamin E, and 650 mg per day of aspirin. Each intervention was given in one-week intervals separated by a one-week washout period. The metabolite was measured in baseline, post-intervention, and post-washout urine specimens and the results were expressed as platelet urinary response ratios (PURR) based upon pg 11-dehydrothromboxane B2/mg creatinine.

[2] = in vivo; cited from earlier work
[3] = system: platelet reactivity; conditions: cited from earlier work
[4] = system: serum TXB2; conditions: 3 mg of aspirin per day, healthy volunteers; cited from earlier work
[5] = cited from earlier work
[6] = single dose of 325 mg; cited from earlier work
[7] = system: 11-dehydro TXB2; assay: Crossover study: urine 11-dehydro TXB2 before and 24 hours after one 81 or 325 mg aspirin tablet in 24 healthy individuals; type: in vivo, human; conditions: for mean reduction of 11-dehydro TXB2 / PURR: healthy non-aspirin users
Description: (§1) In a crossover study, 24 healthy individuals who had avoided aspirin for a minimum of 10 days collected random baseline urine specimens. They then took one 81 or 325 mg tablet at 8:00 a.m. and collected a second urine specimen 24 hours after the aspirin was taken. Following a two-week washout period dosages were reversed and another baseline and 24-hours post-aspirin specimen was collected.
as §1, with “study, twenty-four” for “study, 24”, “of ten” for “of 10”, “8:00 AM” for “8:00 a.m.”, “a 2-week” for “a two-week”

[8] = in vivo; cited from earlier work; remark: listed apart in the source
[9] = system: 11-dehydro TXB2; assay: Platelet urinary response ratio (PURR), aspirin therapy vs non-users, reformulated buffer; type: in vivo, human
From the text: The PURRs generated in the 11-dehydro thromboxane B2 assay in the present example were higher than those generated in subsequent studies. The average reduction after the investigators initial assay was 60%. This change was a result of a reformulation of the reagent buffer. Reformation of the buffer was made by the supplier, Cayman Chemical Corporation. The initial buffer was thought to be a phosphate saline buffer. The reformatted buffer is an alpha diethanolamine buffer. […] The buffer change was made to convert any lactone form present in the same urine to the free acid form of the thromboxane. The current procedure requires a two-hour pre-incubation of the urine sample in the diethanolamine buffer in order to allow for the conversion of the forms before pipetting to the plate. The new decision point for the assay is 400 PURR units, down from the original 1000.
To normalize for urinary output, results are expressed as platelet urinary response ratio (PURR) based upon pg 11-dehydro TXB2/g creatinine. Results of all populations were compared using the student t-test.

[10] = system: platelet suppression response; conditions: patients on aspirin therapy; cited from earlier work
[11] = system: platelet aggregation; conditions: intermittent claudication, 100 mg aspirin/day, at any given time; cited from earlier work
[12] = smokers after partial ileal bypass surgery reporting even infrequent aspirin use; 45.2% with no aspirin use; cited from earlier work
[13] = system: 11-dehydro TXB2; assay: 11-dehydro TXB2 in random urine of aspirin users and non-users (acetylcholinesterase-linked immunoassay); type: in vivo, human; conditions: 45 people taking at least 81 mg/day; non-aspirin users 2080
Description: Random urine specimens were collected from 65 individuals who had avoided aspirin for at least two weeks and from 45 individuals who were taking 81 or 325 mg/day by prescription. Each specimen was assayed for 11-dehydro-TXB2. Specimens were assayed at two dilutions using acetylcholinesterase-linked immunoassay. The results were tested for parallelism and averaged. Urine creatinine was assayed using the Jaffe picrate reaction. To normalize for urinary output, results were expressed in pg 11-dehydro TXB2/mg creatinine. Results of all populations were compared using the student t-test. Within-day variation is 30% and day-to-day variation 20%.
11-dehydrothromboxane B2 (11-de-H-TXB2), a stable metabolite of platelet activation was measured in random urine specimens from 65 people who were not taking aspirin and 45 who were taking at least 81 mg/day. The means for non-aspirin users was 2080 pg 11-de-H-TXB2/mg creatinine, and for aspirin users was 523, p.<0.0000.1. Receiver-operating characteristic analysis yields an optimum decision point of 1000 pg 11-de-H-TXB2 in random urine may be used to document aspirin's platelet-suppressive effects and to identify individuals who may not achieve antithrombotic benefits.

[14] = system: platelet aggregation; conditions: cited from earlier work
[15] = patients with prior acute myocardial infarction or stroke; cited from earlier work

Vitamin E
Mean post-intervention PURR [1]: 1293.1 PURR
% Change of PURR vs mean baseline [1]: +14.3%
effect upon urinary excretion of 11-dehydro thromboxane B2 [1]: no measurable effect

CCCCCC(O)C=CC1OC(=O)CC(O)C1CC=CCCCC(=O)O (stereo not shown) [11-dehydro TXB2, 11-dehydro thromboxane B2]
plasma half-life [2]: 45 min

CC(=O)Oc1ccccc1C(=O)O [Aspirin, acetyl salicylic acid]
subjects with immediate suppression of platelet reactivity ([3]; 500 mg three times per day, upon initial administration): 90%
secondary aspirin non-responders with myocardial infarct, repeat stroke, or vascular death ([3]; 24-month period following discharge): 40%
remaining subjects with major endpoints ([3]; 114 remaining subjects, 24-month period): 4.4%
reduction of serum TXB2 levels compared to placebo [4]: 39%
reduction of the morning peak of infarction ([5]; between 4 and 10 a.m., 325 mg every other day): 59.3%
mean reduction in the incidence of first myocardial infarction ([5]; healthy men, 325 mg every other day, vs placebo): 44.8%
thrombotic events prevented, average ([5]; healthy men): four
duration of effect on platelet laboratory assays [6]: six to ten
% Inhibition (81) ([7]; 81 mg aspirin, urine 11-dehydro TXB2 24 hours post-dose vs baseline, individual subjects 3, 8, 12, 14, 17, 18, 24 with weak response): 60% and 78% and 46% and 48% and 70% and 17% and 10%
mean reduction of 11-dehydro TXB2 / PURR ([7]; 81 mg/day): 68%
% Inhibition (325) ([7]; 325 mg aspirin, urine 11-dehydro TXB2 24 hours post-dose vs baseline, individual subjects 3, 8, 12, 14, 17, 18, 24 with weak response): 44% and 40% and 82% and 83% (2×) and 46% and 38%
mean reduction of 11-dehydro TXB2 / PURR ([7]; 325 mg/day): 76%
individuals with a less than 50% response to either 81 mg or 325 mg of aspirin ([7]; crossover study, seven individuals): 30%
relative risk for hemorrhagic stroke [8]: 4 ×
relative risk of ischemic stroke [8]: 1.6 ×
Mean PURR, aspirin therapy ([9]; 81 to 325 mg/day, N 98, aspirin non-users 1147): 297 PURR units
individuals identified as potential non-responders ([9]; aspirin users, decision points 400 / 500 pg 11-dehydro-TXB2/mg creatinine): 13%
Mean post-intervention PURR [1]: 379.7 PURR
% Change of PURR vs mean baseline [1]: −65.6%
effect upon urinary excretion of 11-dehydro thromboxane B2 [1]: large and statistically significant effect
individuals with aspirin resistance / less than adequate platelet suppression response [10]: up to 20%
males with complete inhibition of aggregation [11]: 40%
overall mortality rate [12]: 10.4%
mean 11-de-H-TXB2 in random urine of aspirin users [13]: 523 pg 11-de-H-TXB2/mg creatinine
patients with only partial inhibition of platelet aggregation ([14]; atrial fibrillation, 325 mg enteric coated aspirin per day): seven of 17
patients with restoration of platelet aggregation (aspirin resistance) ([14]; previous ischemic stroke, escalation to 1300 mg/day): 8.2%
new thrombotic events prevented [15]: up to 40 per thousand treated
